Results taken from publication PMC10808720 (Frontiers in Pharmacology, 2024).

Experiments:
Type in all cases: cell-based, human adenovirus (HAdV5)
wild-type HAdV5 [1] = assay: HAdV/tubulin colocalization (confocal microscopy); settings: 0.05 μM; 90 min after synchronized infection; A549
Description: The coverslips were previously washed with acetone, distilled water and absolute ethanol sequentially, and washed with 1x PBS, and treated with poly-L-lysine (Merck, Darmstadt, Germany) for 1 h, and washed again twice with 1x PBS. […] The infection was synchronized for 1 h on ice, excess virus was removed, and the cells were incubated for 90 min at 37°C and 5% CO2. Finally, the cells were fixed with methanol/acetone 50% for 10 min at −20°C whereupon nonspecific unions were blocked with PBS/BSA 10% for 1 h at room temperature. The cells were then incubated with hexon protein mouse monoclonal IgG (DSHB, Iowa City, USA) and anti-gamma-tubulin antibody marked by Alexa Fluor® 647 (Abcam, Cambridge, UK) for 60 min at room temperature. After rinsing with 1x PBS, the cells were incubated with Alexa Fluor 488 goat anti-mouse IgG (Thermo Fisher Scientific, MA, USA) for 20 min at room temperature, and DAPI (Merck) was added for 5 min to stain the nucleus. Finally, coverslips were fixed on the slides with a mounting medium prepared from one part of 10x PBS and 9 parts of glycerol and stored in the dark overnight at 4°C. […] The Z-series was analyzed by first determining the region of interest and then measuring the fluorescence signal using ImageJ.

wild-type HAdV5 [2] = assay: Nuclear-associated HAdV genomes (qPCR after nuclear isolation); settings: 10-fold IC50; 45 min after synchronized infection; A549
Description: Nuclear delivery of HAdV genomes was assessed using qPCR following nuclear isolation from infected cells. Briefly, 1 × 10^6 A549 cells in 6-well plates were infected either with wild-type HAdV5 at an MOI of 2,000 vp/cell in the presence of a 10-fold IC50 concentration of the compounds obtained in the plaque assay or the same volume of DMSO as the positive control. Forty-five minutes after infection, the A549 cells were trypsinized, collected, and washed twice with PBS. The cell pellet was resuspended in 500 μL of 1×hypotonic buffer (20 mM Tris-HCl pH 7.4, 10 mM NaCl, 3 mM MgCl2) and incubated for 15 min at 4°C. Then, 25 μL of NP-40 was added and the samples were vortexed. The homogenates were centrifuged for 10 min at 835 g at 4°C. Following the removal of the cytoplasmic fraction (supernatant), HAdV DNA was isolated from the nuclear (pellet) and cytoplasmic fractions using the E.Z.N.A.® Tissue DNA Kit (Omega Bio-tek, Norcross, GA).

HAdV5 = assay: HAdV-mediated endosome disruption (α-sarcin co-delivery, HPG incorporation)
Description: A549 cells (2 × 10^4 cells/well) were incubated in DMEM without cysteine or methionine supplemented with 10% dialyzed FBS [DMEM(−)] in black 96-well plates for 1 h prior to infection. Three-fold serial dilutions (0.45 ng–1,000 ng) of HAdV5, or AdV2ts1 were preincubated with cells in the presence of 10-fold IC50 concentration of the compounds obtained in the plaque assay or the same volume of DMSO for positive control for 1 h. The medium was then removed and replaced with 50 μL DMEM(−) containing 0.1 mg/ml α-sarcin (Santa Cruz Biotechnology, Dallas, Texas, USA) and drug mixtures. After 1 h at 37°C, the Click-iT L-homopropargylglycine (HPG) Alexa Fluor 488 Protein Synthesis Assay Kits (Invitrogen) was used to analyse protein synthesis according to the manufacturer’s instructions. The incorporation of the amino acid analogue of methionine HPG containing Alexa Fluor 488 azide was measured using a Typhoon 9410 imager (GE Healthcare Life Sciences) and calculated by subtracting the background level of the control well containing HPG and α-sarcin but not the virus (100% incorporation).

HAdV-RFP = assay: Direct interaction of rotenone with HAdV particles (pre-incubated virions, RFP expression); settings: virions pre-incubated with 0.1 µM; 48 h; A549
Description: These treated virions were then added to A549 cells and incubated for 1 h on ice, to allow the HAdV particles to attach to the cells.

wild-type HAdV5 [3] = assay: HAdV DNA quantification by qPCR; settings: 10-fold IC50; A549; 24 h; vs DMSO control
Description: For DNA quantification, A549 cells (1.5 × 10^5 cells/well in a 24-well plate) were incubated for 24 h in 500 μL of complete DMEM and were infected with wild-type HAdV5 (MOI 100 vp/cell) after observing more than 90% of confluency. Infected cells were incubated for 24 h at 37°C in 500 μL of either complete DMEM containing 10-fold IC50 concentration of the compounds obtained in the plaque assay or the same volume of DMSO (positive control). All samples were prepared in duplicate. After 24 h of incubation at 37°C, DNA was purified from the cell lysate with the E.Z.N.A.® Tissue DNA Kit (Omega Bio-tek, Norcross, GA) following the manufacturer’s instructions. PCR conditions, primers, and probes were as described by [Henke-Gendo et al. (2012)]. Human glyceraldehyde-3-phosphate dehydrogenase (GAPDH) gene was used as an internal control. GAPDH oligonucleotide sequences and conditions were as previously described by [Rivera et al. (2004)].
For quantification, gene fragments from hexons, and GAPDH were cloned into the pGEM-T Easy vector (Promega) and known concentrations of the template were used to generate a standard curve in parallel for each experiment, as previously reported ([Sanchez-Cespedes et al., 2016]). All assays were performed in thermal cycler LightCycler® 96 System (Roche).

In the case of `C=C(C)[C@H]1Cc2c(ccc3c2O[C@@H]2COc4cc(OC)c(OC)cc4[C@@H]2C3=O)O1` [Rotenone, (2R,6aS,12aS)-8,9-dimethoxy-2-(prop-1-en-2-yl)-1,2,12,12a-tetrahydrochromeno[3,4-b]furo[2,3-h]chromen-6-(6aH)-one], the “colocalization of HAdV particles with the tubulin” value (wild-type HAdV5 [1]) is reported as “lower level of colocalization”, the “accessibility of HAdV genomes to the nucleus” value (wild-type HAdV5 [2]) is reported as “significantly blocked” and the HPG incorporation (HAdV5; compared with a control without α-sarcin, 10-fold IC50, independent of virus concentration) is reported as “approximately 30%”. The “attenuation of HAdV-mediated endosomolysis” value (HAdV5; α-sarcin assay) was “did not attenuate”, the “level of RFP inhibition, cells incubated with vs without rotenone after attachment” value (HAdV-RFP) was “no differences” and the “HAdV DNA copy number (de novo synthesis)” value (wild-type HAdV5 [3]) was “significant decrease”.
